The results in this text go back to patent US7495027B2, “3-aryl-4-hydroxyfuranone compounds and the human and animal health use thereof” (Wyeth, priority 2003, dated 2009).

In one assay the test system is C. elegans. Briefly: Efficacy against nematodes (C. elegans motility rating). On the set-up: key: 0: no effect; 7: reduced movement in 24 h; 8: dead in 24 h; 9: dead in 4 h. Conditions: dose 200 μM, observations at 4 h and 24 h postimmersion. The protocol:
Evaluation of the Efficacy of a 3-Aryl-4-Hydroxyfuranone Against Nematodes
In this evaluation, cultures of C. elegans are maintained on E. coli lawns on Nematode Growth Agar at 20° C. New cultures are established twice a week. Nematodes for testing are rinsed from plates using M9 Buffer. […] One μL of this solution is added to each well of a 96 well plate. A mixture of C. elegans in M9 Buffer (100 μL) is added to each well, such that approximately 50 worms of mixed stages (L1, L2, L3, L4 and adults) are present in each well at a final concentration of 100 ppm, 150 ppm or […] of test compound. Concentration of test compound may be varied by gradient dilution of the stock DMSO solution. Observations are made under a dissecting microscope at 4 h and 24 h postimmersion. A rating is based on the motility of the larvae and adults, using the rating system shown below.
With `O=C1O/C(=C\c2cc(C(F)(F)F)ccc2F)C(O)=C1c1cccc(-c2ccccc2)c1` [R=H; R1=3-biphenyl; R2=2-F-5-CF3—C6H3], the Rating was determined as 9.

For `O=C1O/C(=C\c2cc(F)cc(C(F)(F)F)c2)C(O)=C1c1cccc(-c2ccccc2)c1` [R=H; R1=3-biphenyl; R2=3-F-5-CF3—C6H3], the Rating worked out at 9.

With `Cc1ccc(C2=C(O)/C(=C/c3cccc(C(F)(F)F)c3Cl)OC2=O)cc1` [R=H; R1=4-CH3—C6H4; R2=2-Cl-3-CF3—C6H3], the Rating worked out at 9.

As to `Cc1ccc(C2=C(O)/C(=C/c3cc(C(F)(F)F)ccc3Cl)OC2=O)cc1` [R=H; R1=4-CH3—C6H4; R2=2-Cl-5-CF3—C6H3], the Rating turned out to be 0. On the same count and under the same terms, with `O=C1OC(=Cc2cc(C(F)(F)F)ccc2Cl)C(O)=C1c1ccc(-c2ccccc2)cc1` [R=H; R1=4-biphenyl; R2=2-Cl-5-CF3—C6H3] the figure was 9; with `O=C1OC(=Cc2cccc(C(F)(F)F)c2)C(O)=C1c1ccc(-c2ccccc2)cc1` [R=H; R1=4-biphenyl; R2=3-CF3—C6H4], 9. Still for that read-out and setting: with `O=C1OC(=Cc2cc(F)cc(C(F)(F)F)c2)C(O)=C1c1ccc(-c2ccccc2)cc1` [R=H; R1=4-biphenyl; R2=3-F-5-CF3—C6H3] the figure was 9.

The assay is the same for the next values; noted with them: dose 100 ppm, observations at 4 h and 24 h postimmersion.
Molecule `N#Cc1ccc(C2=C(O)C(=Cc3ccc(Cl)c(Cl)c3)OC2=O)cc1` (mixture of isomers) [R=H; R1=4-CN—C6H4**; R2=3,4-diCl—C6H4] registered a Rating of 9.

Molecule `N#Cc1ccc(C2=C(O)C(=Cc3ccc(C(F)(F)F)cc3)OC2=O)cc1` (mixture of isomers) [R=H; R1=4-CN—C6H4**; R2=4-CF3-C6H4] returned a Rating of 9. `O=C1OC(=Cc2ccccc2C(F)(F)F)C(O)=C1c1ccc(Cl)cc1` (mixture of isomers) [R=H; R1=4-Cl—C6H4**; R2=2-CF3—C6H4] had a Rating of 9.

Turning to `O=C1OC(=Cc2ccc(C(F)(F)F)c(F)c2)C(O)=C1c1ccc(Cl)cc1` (mixture of isomers) [R=H; R1=4-Cl—C6H4**; R2=3-F-4-CF3—C6H4], the Rating was determined as 9. Still for that read-out and setting: in the case of `O=C1OC(=Cc2ccc(C(F)(F)F)cc2)C(O)=C1c1ccc(Cl)cc1` (mixture of isomers) [R=H; R1=4-Cl—C6H4**; R2=4-CF3—C6H4] it was 9.

`O=C1OC(=Cc2ccc(SC(F)(F)F)cc2)C(O)=C1c1ccc(Cl)cc1` (mixture of isomers) [R=H; R1=4-Cl—C6H4**; R2=4-SCF3—C6H4] gave a Rating of 9. Same read-out and setting: with `O=C1OC(=Cc2ccc(C(F)(F)F)cc2F)C(O)=C1c1ccc(OC(F)(F)F)cc1` (mixture of isomers) [R=H; R1=4-OCF3—C6H4**; R2=2-F-4-CF3—C6H3] the figure was 9; with `O=C1OC(=Cc2cc(F)cc(C(F)(F)F)c2)C(O)=C1c1ccc(OC(F)(F)F)cc1` (mixture of isomers) [R=H; R1=4-OCF3—C6H4**; R2=3-F-5-CF3—C6H3], 9. Still for that read-out and setting: with `O=C1OC(=Cc2ccncc2)C(O)=C1c1ccc(OC(F)(F)F)cc1` (mixture of isomers) [R=H; R1=4-OCF3—C6H4**; R2=pyridine-4-yl] the figure was 0; with `O=C1OC(=Cc2ccc(C(F)(F)F)cc2)C(O)=C1c1cccs1` [R=H; R1=thiophen-2-yl; R2=4-CF3—C6H4], 7. Same read-out and setting: in the case of `N#Cc1ccc(C=C2OC(=O)C(c3cccs3)=C2O)cc1` [R=H; R1=thiophen-2-yl; R2=4-CN—C6H4] it was 0.

The same assay, now with this note: dose 150 ppm, observations at 4 h and 24 h postimmersion.
Consider `O=C1OC(=Cc2cccc(Cl)c2)C(O)=C1c1ccc(Cl)cc1` (mixture of isomers) [R=H; R1=4-Cl—C6H4**; R2=3-Cl—C6H4], for which the Rating was 9. `N#Cc1ccc(C=C2OC(=O)C(c3ccc(Cl)cc3)=C2O)cc1` (mixture of isomers) [R=H; R1=4-Cl—C6H4**; R2=4-CN—C6H4] registered a Rating of 9. `COC1=C(c2cccc(C(F)(F)F)c2)C(=O)O/C1=C\c1cccc(C(F)(F)F)c1` [R=CH3; R1=3-CF3—C6H4; R2=3-CF3—C6H4] displayed a Rating of 0.

The molecule `COC1=C(c2cccc(C(F)(F)F)c2)C(=O)O/C1=C\c1ccccc1` [R=CH3; R1=3-CF3—C6H4; R2=C6H5] showed a Rating of 0. With `COC1=C(c2ccc(Cl)cc2)C(=O)O/C1=C\c1ccccc1` [R=CH3; R1=4-Cl—C6H4; R2=C6H5], the Rating came to 0. With `COC1=C(c2ccc(OC)cc2)C(=O)O/C1=C\c1cccc(C(F)(F)F)c1` [R=CH3; R1=4-OCH3—C6H4; R2=3-CF3—C6H4], the Rating was 0. Still for that read-out and setting: with `COC1=C(c2ccc(OC)cc2)C(=O)O/C1=C\c1ccccc1` [R=CH3; R1=4-OCH3—C6H4; R2=C6H5] the figure was 0. On the same count and under the same terms, with `COC1=C(c2ccccc2)C(=O)O/C1=C\c1cccc(C(F)(F)F)c1` [R=CH3; R1=C6H5; R2=3-CF3—C6H4] the figure was 0; with `O=C1O/C(=C\c2cccc3ccccc23)C(O)=C1c1cccc2ccccc12` [R=H; R1=1-naphthyl; R2=1-naphthyl], 0. On the same count and under the same terms, in the case of `O=C1O/C(=C\c2cccc(C(F)(F)F)c2)C(O)=C1c1cccc2ccccc12` [R=H; R1=1-naphthyl; R2=3-CF3—C6H4] it was 0; in that of `O=C1O/C(=C\c2ccc(Cl)cc2)C(O)=C1c1cccc2ccccc12` [R=H; R1=1-naphthyl; R2=4-Cl—C6H4], 0; in that of `O=C1O/C(=C\c2ccc(-c3ccccc3F)cc2)C(O)=C1c1ccccc1F` [R=H; R1=2-F—C6H4; R2=4-(2′-F-biphenyl)], 8. For `O=C1O/C(=C\c2cccc(C(F)(F)F)c2)C(O)=C1c1ccc2ccccc2c1` [R=H; R1=2-naphthyl; R2=3-CF3—C6H4], the Rating was 9.

The molecule `O=C1O/C(=C\c2cccc3ccccc23)C(O)=C1c1cccc(C=NO)c1` [R=H; R1=3-(C═NOH)—C6H4; R2=1-naphthyl] returned a Rating of 0. Still for that read-out and setting: with `O=C1O/C(=C\c2ccccc2)C(O)=C1c1cccc(C(F)(F)F)c1` [R=H; R1=3-CF3—C6H4; R2=C6H5] the figure was 8. Turning to `O=C1OC(=Cc2cccc3ccccc23)C(O)=C1c1cccc(CO)c1` [R=H; R1=3-CH2OH—C6H4; R2=1-naphthyl], the Rating was 0. On the same count and under the same terms, with `O=Cc1cccc(C2=C(O)/C(=C/c3cccc4ccccc34)OC2=O)c1` [R=H; R1=3-CHO—C6H4; R2=1-naphthyl] the figure was 0; with `N#Cc1cccc(C2=C(O)/C(=C/c3ccc(-c4cccc(C#N)c4)cc3)OC2=O)c1` [R=H; R1=3-CN—C6H4; R2=4-(3′-CN-biphenyl)], 0; with `O=C1O/C(=C\c2ccccc2-c2cccc(Cl)c2)C(O)=C1c1cccc(Cl)c1` [R=H; R1=3-Cl—C6H4; R2=2-(3′-Cl-biphenyl)], 0. `O=C1O/C(=C\c2cccc(C(F)(F)F)c2)C(O)=C1c1cccc(-c2ccccc2)c1` [R=H; R1=3-biphenyl; R2=3-CF3—C6H4] displayed a Rating of 0. For the molecule `CC(=NO)c1ccc(C2=C(O)C(=Cc3cccc4ccccc34)OC2=O)cc1` [R=H; R1=4-(CH3C═NOH)—C6H4; R2=1-naphthyl], the Rating stood at 7. In turn, `O=C1O/C(=C\c2cccc3ccccc23)C(O)=C1c1ccc(C(F)(F)F)cc1` [R=H; R1=4-CF3—C6H4; R2=1-naphthyl] came in with a Rating of 9. The same measure, in the same setting: in the case of `N#Cc1ccc(/C=C2\OC(=O)C(c3ccc(C#N)cc3)=C2O)cc1` [R=H; R1=4-CN—C6H4**; R2=4-CN—C6H4] it was 9; in that of `N#Cc1ccc(C2=C(O)C(=Cc3ccc(Cl)cc3)OC2=O)cc1` [R=H; R1=4-CN—C6H4**; R2=4-Cl—C6H4], 9; in that of `N#Cc1ccc(C2=C(O)C(=Cc3ccc(-c4ccc(C#N)cc4)cc3)OC2=O)cc1` [R=H; R1=4-CN—C6H4; R2=4-(4′-CN-biphenyl)], 8.

For `COC(=O)c1ccc(C2=C(O)/C(=C/c3cccc4ccccc34)OC2=O)cc1` [R=H; R1=4-CO2CH3—C6H4; R2=1-naphthyl], the Rating amounted to 9.

In the case of `CC(=O)c1ccc(C2=C(O)C(=Cc3ccccc3C(F)(F)F)OC2=O)cc1` [R=H; R1=4-COCH3—C6H4; R2=2-CF3—C6H4], the Rating turned out to be 0. With `O=C1O/C(=C\c2ccccc2-c2ccc(Cl)cc2)C(O)=C1c1ccc(Cl)cc1` [R=H; R1=4-Cl—C6H4; R2=2-(4′-Cl-biphenyl)], the Rating was 0. `O=C1O/C(=C\c2cccc(C(F)(F)F)c2)C(O)=C1c1ccc(Cl)cc1` [R=H; R1=4-Cl—C6H4; R2=3-CF3—C6H4]: the Rating was 9. As to `O=C1OC(=Cc2ccccc2C(F)(F)F)C(O)=C1c1ccc(F)cc1` [R=H; R1=4-F—C6H4; R2=2-CF3—C6H4], the Rating is listed as 0. Still for that read-out and setting: in the case of `COc1ccc(C2=C(O)/C(=C/c3ccc4ccccc4c3)OC2=O)cc1` [R=H; R1=4-OCH3—C6H4; R2=2-naphthyl] it was 0; in that of `COc1ccc(C2=C(O)/C(=C/c3ccc(Cl)cc3)OC2=O)cc1` [R=H; R1=4-OCH3—C6H4; R2=4-Cl—C6H4], 0; in that of `COc1ccc(/C=C2\OC(=O)C(c3ccc(OC)cc3)=C2O)cc1` [R=H; R1=4-OCH3—C6H4; R2=4-OCH3—C6H4], 0. Still for that read-out and setting: in the case of `O=C1O/C(=C\c2ccc3ccccc3c2)C(O)=C1c1ccc(-c2ccccc2)cc1` [R=H; R1=4-biphenyl; R2=2-naphthyl] it was 0; in that of `O=C1O/C(=C\c2ccc(-c3ccccc3)cc2)C(O)=C1c1ccc(-c2ccccc2)cc1` [R=H; R1=4-biphenyl; R2=4-biphenyl], 9. The same measure, in the same setting: in the case of `O=C1O/C(=C\c2cccc(C(F)(F)F)c2)C(O)=C1c1ccccc1` [R=H; R1=C6H5; R2=3-CF3—C6H4] it was 0.
